{
  "source": "patent US6759212B1",
  "about": "“Cell cycle-regulating proteins” (Chugai Seiyaku Kabushiki Kaisha, priority 1997, dated 2004)",
  "key": {"NRK-49F cells": {"test_system": "NRK-49F cells", "assay": "Abnormal cytokinesis: cells having two or more nuclei after transient transfection", "format": "cell-based, rat", "settings": "72 hours after transfection", "excerpt": "(§1) To confirm the generality of this observation, AIM-1 (WT) and AIM-1 (K-R) plasmids were transiently expressed in NRK-49F cells and human diploid fibroblast KD cells and the results were compared with those obtained in a control transfected with vector alone. These constructs were transfected into cell-s with a reporter construct […] to prepare β-galactosidase-expressing plasmids for use as a positive internal control for transfection (Table 1).\n(§2) (2) Abnormal Cytokinesis in Cells Expressing AIM-1 (K-R) Plasmid FLAG-AIM-1 (WT), FLAG-AIM-1 (K-R) or a control plasmid pEF/hygI was cotransfected with a reporter construct RSV-β-galactosidase at a ratio of 10:1 into NRK-49F cells and human diploid fibroblast KD cells (a kind gift of late Dr. Takeo Kakunaga) by Lipofectin method. After 24 hours, 1×10^3 cells were seeded per 60 mm dish, and 72 hours after transfection, cells were fixed in 1.25% glutaraldehyde/PBS and stained by a method described in literature (Shu et al., J.C.S. 108:2955-62, 1995) to observe expression of β-galactosidase. MvlLu cells were also tested under the conditions described in (1) B above.\n(§3) 1. The figures in the table mean the percentage of cells having two or more nuclei to β-galactosidase positive cells for NRK-49F cells and KD cells or the percentage of cells having two or more nuclei to the total number of cells for MvlLu cells. […]"}, "Mv1Lu cells [1]": {"test_system": "Mv1Lu cells", "assay": "FACS analysis of DNA content (propidium iodide)", "format": "cell-based, mink", "settings": "72 hour-induction", "experimental": "(§4) MvlLu cells carrying vector alone, wild-type FLAG-AIM-1 (WT) or FLAG-AIM-1 (K-R) were grown in the presence or absence of doxycycline (tetracycline analog) for 24 hours and then subjected to western blot with anti-FLAG antibody (FIG. 4A). […] In addition, the size of these cells was much larger than normal cells (FIGS. 4Bf and 5D). In these abnormal cells, however, spindle. functions including chromosome disjunction and late anaphase spindle elongation as well as nuclear division appeared unaffected (data not shown). This was further confirmed by flow cytometry (FACS) (FIG. 4C). […] Namely, apocytes appeared because karyokinesis advances but cytokinesis is inhibited.\nCell samples were harvested and fixed with ethanol, stained with propidium iodide for FACS analysis."}, "Mv1Lu cells [2]": {"test_system": "Mv1Lu cells", "assay": "Abnormal cytokinesis: cells having two or more nuclei, tetracycline-inducible expression, Giemsa staining", "format": "cell-based, mink", "settings": "Mv1Lu, 72 hours", "experimental": "as §4\nThen, asynchronous cells transfected with vector alone (a, d), FLAG-AIM-1 (WT) (b, e) or FLAG-AIM-1 (K-R) (c, f) were grown with (a-c) or without (d-f) DOX for 72 hours and stained with Giemsa's solution. Results are shown in FIG. 4B, wherein upper panels are called as a, b and c from left to right, and lower panels are called as d, e and f from left to right.\n(2) Abnormal Cytokinesis in Cells Expressing AIM-1 (K-R) Plasmid FLAG-AIM-1 (WT), FLAG-AIM-1 (K-R) or a control plasmid pEF/hygI was cotransfected with a reporter construct RSV-β-galactosidase at a ratio of 10:1 into NRK-49F cells and human diploid fibroblast KD cells (a kind gift of late Dr. Takeo Kakunaga) by Lipofectin method. […]"}, "[3]": {"test_system": "human diploid fibroblast KD cells", "assay": "Abnormal cytokinesis: cells having two or more nuclei after transient transfection", "format": "cell-based", "settings": "72 hours after transfection", "excerpt": "as §1, §2, §3"}, "Mv1Lu cells [4]": {"test_system": "Mv1Lu cells", "assay": "Growth for 2 weeks with or without DOX, Giemsa staining", "format": "cell-based, mink", "settings": "grown 2 weeks with or without doxycycline", "experimental": "The nuclei of these AIM-1 (K-R)-expressing cells divided 3 to 4 times during 4 to 5 days, resulting in more than 10 nuclei per cell (FIG. 5D).\nMv1Lu cells transfected with FLAG-AIM-1 (WT) or FLAG-AIM-1 (K-R) were grown with or without DOX for 2 weeks and stained with Giemsa's solution."}},
  "data": [
    {"substance": "AIM-1 (WT): wild-type rat AIM-1 protein kinase labeled with FLAG at the N-terminus, expressed from plasmid pUHD10-3 or pEF/hygI", "values": [
      {"measurement": "percentage of cells having two or more nuclei to β-galactosidase positive cells", "setting": "NRK-49F cells", "value": 7.8, "unit": "%"},
      {"measurement": "cell population with 4N or 8N DNA / cell cycle pattern (FACS)", "setting": "Mv1Lu cells [1]", "value": "normal cell cycle pattern"},
      {"measurement": "percentage of cells having two or more nuclei to the total number of cells", "setting": "Mv1Lu cells [2]; DOX(+) (not induced)", "value": 0.9, "unit": "%"},
      {"measurement": "percentage of cells having two or more nuclei to the total number of cells", "setting": "Mv1Lu cells [2]; DOX(−) (induced)", "value": 2.8, "unit": "%"},
      {"measurement": "percentage of cells having two or more nuclei to β-galactosidase positive cells", "setting": "[3]", "value": 4.8, "unit": "%"},
      {"measurement": "effect on growth potency (mitotic inhibition)", "setting": "Mv1Lu cells [4]", "value": "not"}
    ]}
  ]
}
